Results: US20250313900A1, “COMPOSITIONS AND THERAPEUTIC AGENTS FOR MODULATING INFLAMMATORY RESPONSES ON BOTH TUMOR AND IMMUNE CELLS” (THE METHODIST HOSPITAL, priority 2022, published 2025)
Read-outs that look alike come from different tables or passages of the source.

Experiments:
MHC II = MHC II assay by high-throughput flow cytometry (compound screening); type: cell-based
Source text: (§1) The initial screening was followed by the following assessments: 1) MHC 11 assay by high-throughput flow cytometry. 2) IL-6 production. 3) NF-kB promoter activity using CMTM4-expressing NF-kB/secreted embryonic alkaline phosphatase (SEAP) reporter stable cell lines using both LLC and 4T1 cells. 4) Inhibition of EGF-mediated G-CSF secretion from tumor cells. 5) Test glycolysis (FIG. 13).

IL-6 = IL-6 production (compound screening); type: cell-based
Source text: as §1

[1] = test system: NF-kB promoter activity in LLC cells; assay: NF-kB promoter activity, CMTM4-expressing NF-kB/SEAP reporter stable LLC cells; type: cell-based, murine
Source text: as §1

[2] = test system: NF-kB promoter activity in 4T1 cells; assay: NF-kB promoter activity, CMTM4-expressing NF-kB/SEAP reporter stable 4T1 cells; type: cell-based, murine
Source text: as §1

G-CSF = assay: Inhibition of EGF-mediated G-CSF secretion from tumor cells; type: cell-based
Protocol: as §1
Secretion of G-CSF was determined using ELISA kits according to the manufacturer's instructions (Life Technologies).

glycolysis = assay: Test glycolysis (compound screening); type: cell-based
Source text: as §1

p-Akt/p-mTOR = p-Akt/p-mTOR (compound screening); type: cell-based
Protocol: (§2) Protein samples from cells were separated on sodium dodecyl sulfate (SDS)-polyacrylamide gels and transferred to PVDF membranes. The membranes were blocked in 4% skim milk solution, incubated with the appropriate antibody, and subsequently incubated with a secondary antibody conjugated with horseradish peroxidase. The antibodies for p-NF-κBp65, NF-κBp65. EGFR, PTEN, Akt, p-Akt, mTOR, p-mTOR, S6, p-S6, Rab4, Rab5a, Rab11, Tubulin, actin, vinculin, and CMTM4 were purchased from Cell Signaling Technology, Inc. (Beverly, MA) and the antibody for Rab21 was purchased from Santa Cruz Biotechnology. The immunoreactive bands were visualized using the ECL system (Thermo Scientific). Control and CMTM4 KD cell lysates were analyzed using the proteome profiler mouse phospho-receptor tyrosine kinase array kit (R&D Systems) following the manufacturer's instructions. For immunoprecipitation, Dynabeads His-Tag isolation and pulldown kit (Life Technologies) was used. The pull-down samples were subjected to immunoblot assays.

CMTM4 [3] = biological target: T1, CMTM4 (Mus musculus, UniProt Q8CJ61); assay: CMTM4 level (compound screening); type: cell-based
T1 construct: endogenous in cells; LLC and 4T1 are the only lines named in the screen
T1 sequence (Q8CJ61 whole entry): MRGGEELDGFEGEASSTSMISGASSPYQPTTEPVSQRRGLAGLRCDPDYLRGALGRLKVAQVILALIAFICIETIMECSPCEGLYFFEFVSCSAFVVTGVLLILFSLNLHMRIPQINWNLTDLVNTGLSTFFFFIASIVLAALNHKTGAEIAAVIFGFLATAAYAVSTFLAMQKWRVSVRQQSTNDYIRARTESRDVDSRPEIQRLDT
Protocol: as §2

vinculin = assay: Western blots of vinculin expression, 4T1 tumor model; type: cell-based; settings: CMTM4 knockout, 1 mm, 0, 3, 6 and 24 hours
Protocol: 1 mm of C10H14O3 (4-Ethoxy-3-methoxybenzyl alcohol)(28A), C9H16N2O6 (Tetrahydrouridine)(28B), or C10H14O3 (5-tert-butyl-2-methyl-3-furoic acid)(28C) was administered to control mice or CMTM4 knockouts and expression measured after 0, 3, 6, and 24 hours.

CMTM4 [4] = assay: Western blot of CMTM4 protein in HCC827 CT cells; type: cell-based, human; settings: 1 μM
EGFR = EGFR levels in LLC CMTM4 KD cells after lipid raft depletion; type: cell-based, murine
Protocol: Flotillin-1 was used as a marker of lipid raft and vinculin was used as a maker of the non-raft fraction. […] FIGS. 8D and 8E show LLC CMTM4 KD cells were treated with MβCD and real-time PCR (8D) and western blot (8E) were performed to determine EGFR levels. *p<0.05. FIG. 8F show 293T cells were transfected with CMTM4 WT-mcherry (upper) or CMTM4 MT-mcherry (lower) with EGFR-EGFP and then, cells were treated with EGF for 1 hour. Representative confocal images are shown. FIG. 8G show RNAseq data showing Rab expression between control and CMTM4 KD LLC cells. FIGS. 8H and 8I show Rab expression in control and CMTM4 KD LLC cells were determined by qRT-PCR (H) and western blot (8I). FIGS. 8J, 8K, and 8L show 293T cells were transfected with CMTM4-EGFP and Rab4 (mCherry), Rab5 (mCherry), or Rab11 (mCherry), and then, cells were treated with EGF for 1 hour. Representative confocal images are shown. Pearson correlation coefficient (PCC) was measured from 20 individual cells. FIGS. 8M and 8N show EGFR-EGFR and Lamp-1 RFP were transfected to LLC control and CMTM4 KD cells. Confocal imaging was taken before (8M) and after (8N) treatment with EGF. Pearson correlation coefficient (PCC) was measured from 20 individual cells. *p<0.05, **p<0.01, ***P<0.001, ****P<0.0001. Scale bar: 3 μm. […]

| Compound | MHC II (%) (MHC II) | IL-6 (%) (IL-6) | Glycolysis (glycolysis) | p-Akt/p-mTOR (p-Akt/p-mTOR) | CMTM4 (CMTM4 [3]) | also measured |
| --- | --- | --- | --- | --- | --- | --- |
| CCc1cccc2c1c(O)c(C(=O)N(CC)c1ccccc1)c(=O)n2C [C21H22N2O3, Paquinimod, Paquinimod] | 520.6 | −0.809 | Inhibit | Decrease | No difference | NF-kB (%)-LLC ([1]; LLC reporter cells): 32.6%; NF-kB (%)-4T1 ([2]; 4T1 reporter cells): 46.87%; G-CSF (%) (G-CSF; EGF-mediated secretion): 3.464% |
| N#Cc1cn([C@@H]2O[C@H](CO)[C@@H](O)[C@H]2O)c2ncnc(N)c12 [C12H13N5O4, Toyocamycin, Toyocamycin] | – | −3.717 | Inhibit | Decrease | No difference | – |
| C[C@H]1O[C@H](O[C@H]2[C@H](O)[C@@H](O)[C@@H](O)[C@H](O)[C@@H]2O)[C@@H](N)C[C@@H]1NC(=N)C(=O)O [C14H25N3O9, Kasugamycin, Kasugamycin] | 483.4 | 1.934 | Inhibit | Decrease | No difference | NF-kB (%)-LLC [1]: 46.83%; NF-kB (%)-4T1 [2]: 44.19%; G-CSF (%) (G-CSF): 66.41% |
| CCOc1ccc(CO)cc1OC [4-Ethoxy-3-methoxybenzyl alcohol] | – | – | – | – | – | vinculin expression (vinculin): significantly increased |
| COc1cc(-c2oc3cc(O)cc(O)c3c(=O)c2O)ccc1O [C16H12O7, Isorhamnctin, Isorhamnetin] | – | −11.581 | Inhibit | Decrease | No difference | – |
| CO[C@H]1Nc2c(ccc(C)c2O)C(=O)N2C=C(/C=C/C(N)=O)C[C@@H]12 [C17H19N3O4, Anthramycin methyl ether, Anthramycin methyl ether] | – | −1.982 | Inhibit | Decrease | No difference | – |
| Cc1ccccc1OCC(O)CO (centres unmarked) [C10H14O3, Mephenesin, Mephenesin] | – | 0.5625 | Inhibit | Decrease | No difference | – |
| C[C@@H]1C[C@@H]2CCCC(O)=C2C(=O)O1 [Compound C10H14O3, Ramulosin] | 340.5 | −0.1232 | Inhibit | Decrease | No difference | NF-kB (%)-LLC ([1]; LLC reporter cells): 34.35%; NF-kB (%)-4T1 ([2]; 4T1 reporter cells): 42.04%; G-CSF (%) (G-CSF; EGF-mediated secretion): 3.85% |
| Cc1oc(C(C)(C)C)cc1C(=O)O [5-tert-butyl-2-methyl-3-furoic acid] | – | – | – | – | – | vinculin expression (vinculin): significantly increased |
| Cc1c2ccncc2c(C)c2c1[nH]c1ccccc12 [Ellipticine] | – | −15.7288 | Inhibit | Decrease | No difference | CMTM4 protein expression (CMTM4 [4]): decreased |
| O=C1NC(O)CCN1[C@@H]1O[C@H](CO)[C@@H](O)[C@H]1O (some centres unmarked) [C9H16N2O6, Tetrahydrouridine, Tetrahydrouridine] | – | −0.1232 | Inhibit | Decrease | No difference | CMTM4 protein expression (CMTM4 [4]): decreased; vinculin expression (vinculin): significantly increased |
| CC[C@]12CCCN3CCc4c(n(c5ccccc45)[C@@](O)(C(=O)OC)C1)[C@@H]32 [C21H26N2O3, Vincamine, Vincamine] | – | 5.815 | Inhibit | No difference | Decrease | – |
| OC[C@H]1O[C@@H](n2cnc3c(O)ncnc32)[C@H](O)[C@@H]1O [C10H12N4O5, Inosine, Inosine] | – | −9.437 | Inhibit | – | No difference | CMTM4 protein expression (CMTM4 [4]): decreased |
| CCCCC1CCCCCCc2[nH]c(/C=C3\N=C(c4ccc[nH]4)C=C3OC)cc21.Cl (centres unmarked) [C25H33N3O•ClH, Butylcycloheptylprodiginine Hydrochloride] | 426.2 | −6.005 | Inhibit | – | Decrease | NF-kB (%)-LLC ([1]; LLC reporter cells): 53.61%; NF-kB (%)-4T1 ([2]; 4T1 reporter cells): 45.8%; G-CSF (%) (G-CSF; EGF-mediated secretion): 4.236% |
| COc1ccc2c3c([nH]c2c1)[C@H](C=C(C)C)N1C(=O)[C@@H]2CCCN2C(=O)[C@@H]1C3 [Fumitremorgin C] | 5071 | 10.85 | Inhibit | Decrease | No difference | NF-kB (%)-LLC [1]: 42.89%; NF-kB (%)-4T1 [2]: 49.73%; G-CSF (%) (G-CSF): 6.939% |
| methyl-beta-cyclodextrin [methyl-beta-cyclodextrin (MβCD)] | – | – | – | – | – | EGFR mRNA level (EGFR; real-time PCR): increased; EGFR protein level (EGFR; western blot): increased |
| C/C=C/C(=O)O [C4H6O2, CROTONIC ACID, CROTONIC ACID] | – | 4.438 | Inhibit | Decrease | No difference | – |
| COc1cc(O)c2c(=O)c(O)c(-c3ccc(O)c(O)c3)oc2c1 [C16H12O7, Rhamnetin, Rhamnetin] | – | −5.243 | Inhibit | Decrease | No difference | – |
| O=C(/C=C/c1ccc(O)c(O)c1)O[C@H](Cc1ccc(O)c(O)c1)C(=O)O [C18H16O8, Rosmarinic Acid, Rosmarinic Acid] | – | −0.1232 | Inhibit | Decrease | No difference | – |
| Lobophorin F [C54H78N2O17, Lobophorin F] | 360.5 | −12.2043 | Inhibit | Decrease | Decrease | NF-kB (%)-LLC ([1]; LLC reporter cells): 37.64%; NF-kB (%)-4T1 ([2]; 4T1 reporter cells): 40.07%; G-CSF (%) (G-CSF; EGF-mediated secretion): 1.147% |
